Test results published in patent publication US11672812B2, “Methods and compositions comprising tyrosine kinase inhibitor and triptolide for the treatment of cancer” (City of Hope, priority 2020, dated 2023).

Tests used:
[1] = test system: HCC827 cells grafted into mice; assay: Tumor growth in HCC827-grafted mice; type: in vivo
Excerpt: To model human EGFR mutated NSCLC, HCC827 cells were grafted into mice.
HCC827 or AZD9291-resistant HCC827 cancer or PC9 NSCLC cells (5×10^6) were subcutaneously injected into NOD/SCID mice (2 months old, n=6-10 for each group). […] The tumor volume was monitored twice a week for 4-8 weeks. All protocols involving animals were approved by the Research Animal Care Committee of City of Hope, in compliance with the Public Health Service Policy of the United States.

PC9 tumor = PC9 tumor growth in grafted mice following Tagrisso resistance development; type: in vivo; settings: for tumor volume relative to its volume prior to the treatment (100%): PC9-grafted mice after 4 weeks Tagrisso, Tagrisso 2x dosage (Group 1), combination (Group 3)
Protocol: (§1) HCC827 or AZD9291-resistant HCC827 cancer or PC9 NSCLC cells (5×10^6) were subcutaneously injected into NOD/SCID mice (2 months old, n=6-10 for each group). After tumor size reaches approximately 100 mm^3, the mice were administered AZD9291 individually or in combination with triptolide using ALZET osmotic pump, which was implanted under the skin of the mice for a specific time period. The tumor volume was monitored twice a week for 4-8 weeks. All protocols involving animals were approved by the Research Animal Care Committee of City of Hope, in compliance with the Public Health Service Policy of the United States.

[2] = test system: EGFR-TKI resistant HCC827 lung cancer cells; assay: Tumor growth of Tagrisso-resistant HCC827 cells grafted in mice; type: in vivo
Protocol: as §1

HCC827 cells = assay: Drug resistance assay (time to develop resistance, cell viability by cell counting); type: cell-based, human
HSP72 [3] = assay: HSP72 cellular expression; type: cell-based
Excerpt: Triptolide by itself is a potent anti-tumor agent and functions by activating tumor suppressor protein p53 and blocking tumor promotor NF-κB.

HSP72 [4] = assay: HSP72 protein level in Tagrisso-treated HCC827 cells; type: cell-based, human
Excerpt: The inventors sought to maintain high levels of HSP72 while sustaining cancer treatment with TKIs.

PC9 tumors = assay: Tumor growth in PC9-grafted mice (Velcade study); type: in vivo; settings: same treatment setting as HCC827 study
Protocol: (§2) A separate experiment was completed using PC9-grafted mice in the same treatment setting as previously described.
as §1

[5] = Adverse effect observed in treated PC9-grafted mice; type: in vivo; settings: Velcade treatment
Excerpt: as §2

HCC827-grafted mice = assay: Survival rates of HCC827-grafted mice; type: in vivo; design: dose or concentration left out as unconfirmed; settings: Tagrisso with or without co-administered Velcade (FIG. 3)
[6] = HCC827-grafted mice, compared to untreated control (FIG. 2), Tagrisso at dose corresponding to recommended human dose, low dose of Velcade

C=CC(=O)Nc1cc(Nc2nccc(-c3cn(C)c4ccccc34)n2)c(OC)cc1N(C)CCN(C)C [Tagrisso, Osimertinib]
tumor growth [1, 6]: reduced tumor size and blocked tumor growth
tumor growth ([1]; non-resistant HCC827 cells (FIG. 5A)): tumor growth is inhibited
tumor volume relative to its volume prior to the treatment (100%) (PC9 tumor; Triptolide (Group 2)): 190%
treatment time at which Tagrisso began to lose its inhibitory effect on the PC9 tumor (PC9 tumor; PC9-grafted mice, initial Tagrisso dosage): 4 weeks
tumor growth ([2]; Tagrisso-resistant HCC827 grafted mice (FIG. 5A, 5B)): does not reduce tumor growth

C#Cc1cccc(Nc2ncnc3cc(OCCOC)c(OCCOC)cc23)c1 [Tarceva, Erlotinib]
time for HCC827 cells to develop resistance to Tarceva (HCC827 cells; Tarceva alone): about 30 days

CC(C)[C@]12O[C@H]1[C@@H]1O[C@]13[C@]1(O[C@H]1C[C@H]1C4=C(CC[C@@]13C)C(=O)OC4)[C@@H]2O [Triptolide]
tumor volume relative to its volume prior to the treatment (100%) (PC9 tumor; Triptolide (Group 2)): 60%
duration of inhibitory effect on PC9 tumor growth (PC9 tumor; after 4 weeks Tagrisso pre-treatment, Tagrisso at 2x dosage (Group 1), Triptolide (Group 2)): at least 4 weeks
sensitization of Tagrisso-resistant HCC827 to the EGFR-TKI ([2]; Tagrisso in the absence or presence of Triptolide (FIG. 5B)): sensitizes Tagrisso-resistant HCC827 cells to the EGFR-TKI
HSP72 cellular expression (HSP72 [3]): may activate HSP72 cellular expression
time HCC827 cells maintained sensitivity to Tagrisso (HCC827 cells; Tagrisso in the presence of Triptolide, 70 day duration of the study): > 70 days
time HCC827 cells maintained sensitivity to Tarceva (resistance not observed) (HCC827 cells; Tarceva when also treated with Triptolide, 70 day duration of the study): > 70 days

CC(C)C[C@H](NC(=O)[C@H](Cc1ccccc1)NC(=O)c1cnccn1)B(O)O [Velcade, Bortezomib]
tumor growth [1, 6]: moderately inhibited tumor growth
time HCC827 cells remained sensitive to Tagrisso (HCC827 cells; Tagrisso in the presence of Velcade, same concentration): > 60 days
HSP72 protein levels (HSP72 [4]): effectively maintains high levels of HSP72 protein
PC9 tumor growth (PC9 tumors): little inhibitory effect on PC9 tumor growth
adverse effect [5]: skin inflammation after one month
survival of the mice (HCC827-grafted mice): did not improve survival of the mice
